In the NIST ThermoML archive (doi:10.1021/je8003832):

Assay: xn = mol fraction of the nth substance listed
Conditions: 101 kPa, Liquid

CCCCn1cc[n+](C)c1.O=S(=O)([O-])C(F)(F)F [1-butyl-3-methylimidazolium trifluoromethanesulfonate] + O
Conditions | mass density [kg/m3] | viscosity [mPa·s]
303.15 K, x2 = 0 | 1298.4 | 63.19
303.15 K, x2 = 0.1032 | 1294.5 | 45.7
303.15 K, x2 = 0.1939 | 1291.2 | 35.41
303.15 K, x2 = 0.2987 | 1286.5 | 28.97
303.15 K, x2 = 0.3999 | 1280.8 | 23.25
303.15 K, x2 = 0.501 | 1272.8 | 19.19
303.15 K, x2 = 0.5923 | 1263 | 15.47
303.15 K, x2 = 0.7023 | 1246.2 | 11.56
303.15 K, x2 = 0.799 | 1220.1 | 8.206
303.15 K, x2 = 0.901 | 1164.6 | 4.552
308.15 K, x2 = 0 | 1294.9 | 51.73
308.15 K, x2 = 0.1032 | 1291 | 37.23
308.15 K, x2 = 0.1939 | 1287.7 | 29.27
308.15 K, x2 = 0.2987 | 1283 | 24.28
308.15 K, x2 = 0.3999 | 1277.3 | 19.95
308.15 K, x2 = 0.501 | 1269.3 | 16.8
308.15 K, x2 = 0.5923 | 1259.5 | 13.2
308.15 K, x2 = 0.7023 | 1242.5 | 10.13
308.15 K, x2 = 0.799 | 1216.6 | 6.932
308.15 K, x2 = 0.901 | 1160.6 | 3.869
313.15 K, x2 = 0 | 1291.4 | 42.46
313.15 K, x2 = 0.1032 | 1287.5 | 30.93
313.15 K, x2 = 0.1939 | 1284.1 | 24.46
313.15 K, x2 = 0.2987 | 1279.4 | 20.53
313.15 K, x2 = 0.3999 | 1273.8 | 16.88
313.15 K, x2 = 0.501 | 1265.7 | 13.95
313.15 K, x2 = 0.5923 | 1255.9 | 11.21
313.15 K, x2 = 0.7023 | 1238.8 | 8.605
313.15 K, x2 = 0.799 | 1212.9 | 5.989
313.15 K, x2 = 0.901 | 1156.7 | 3.376
318.15 K, x2 = 0 | 1287.8 | 35.17
318.15 K, x2 = 0.1032 | 1283.8 | 25.04
318.15 K, x2 = 0.1939 | 1280.4 | 20.79
318.15 K, x2 = 0.2987 | 1275.8 | 17.55
318.15 K, x2 = 0.3999 | 1270.2 | 14.38
318.15 K, x2 = 0.501 | 1262 | 12
318.15 K, x2 = 0.5923 | 1252.2 | 9.907
318.15 K, x2 = 0.7023 | 1234.9 | 7.465
318.15 K, x2 = 0.799 | 1208.9 | 5.339
318.15 K, x2 = 0.901 | 1153 | 3.156
323.15 K, x2 = 0 | 1284.4 | 29.55
323.15 K, x2 = 0.1032 | 1280.3 | 21.51
323.15 K, x2 = 0.1939 | 1276.8 | 18.11
323.15 K, x2 = 0.2987 | 1272.2 | 15.17
323.15 K, x2 = 0.3999 | 1266.5 | 12.62
323.15 K, x2 = 0.501 | 1258.3 | 10.42
323.15 K, x2 = 0.5923 | 1248.5 | 8.516
323.15 K, x2 = 0.7023 | 1231.1 | 6.576
323.15 K, x2 = 0.799 | 1205.2 | 4.57
323.15 K, x2 = 0.901 | 1150 | 3.005
333.15 K, x2 = 0 | 1277.4 | 21.61
333.15 K, x2 = 0.1032 | 1273.1 | 16.07
333.15 K, x2 = 0.1939 | 1269.7 | 13.51
333.15 K, x2 = 0.2987 | 1265 | 11.61
333.15 K, x2 = 0.3999 | 1259.3 | 9.88
333.15 K, x2 = 0.501 | 1251.1 | 8.101
333.15 K, x2 = 0.5923 | 1241.3 | 6.702
333.15 K, x2 = 0.7023 | 1223.4 | 5.137
333.15 K, x2 = 0.799 | 1197.2 | 3.618
333.15 K, x2 = 0.901 | 1142.6 | 2.099
343.15 K, x2 = 0 | 1270.5 | 16.38
343.15 K, x2 = 0.1032 | 1266 | 12.44
343.15 K, x2 = 0.1939 | 1262.6 | 10.54
343.15 K, x2 = 0.2987 | 1257.9 | 9.137
343.15 K, x2 = 0.3999 | 1252.2 | 7.816
343.15 K, x2 = 0.501 | 1244 | 6.612
343.15 K, x2 = 0.5923 | 1233.9 | 5.384
343.15 K, x2 = 0.7023 | 1215.6 | 4.24
343.15 K, x2 = 0.799 | 1189.3 | 2.936
343.15 K, x2 = 0.901 | 1134.3 | 1.714
